# According to patent US6559151B2, “6-(2-trifluoromethyl-phenyl)-triazolopyrimidines” (BASF Aktiengesellschaft, priority 2000, dated 2003):
# Columns and labels:
# Format in all cases: cell-based
# [1] = tested on: Magnaporthe grisea f. sp. Oryzae; conditions: total inhibition of mycelial growth; V8 juice medium; 6-12 days at 18-25° C.; visual
# Cochliobulus sativus = assay: MIC serial dilution test, Cochliobulus sativus; conditions: V8 juice medium, 6-12 days at 18-25° C., visual
# Botrytis cinerea = assay: MIC serial dilution test, Botrytis cinerea; conditions: V8 juice medium, 6-12 days at 18-25° C., visual
# Rhizoctonia solani = assay: In vitro fungicidal activity against Rhizoctonia solani (mycelial growth inhibition rating); parameters: key: 0: None; 3: slight; 5: moderate; 7: severe; 9: complete; conditions: 25 ppm; 24-cell-well plates; 3-7 days of incubation
# Protocol: C Evaluation of In vitro Fungicidal Activity against Rhizoctonia solani Test compounds are dissolved in acetone to give a concentration of 25 ppm and added to individual cell walls (24-cell-well-plates, Corning), which were previously filled with a suspension of ground fungal mycelium in a chemically defined growth medium. After 3-7 days of incubation, inhibition of mycelial growth is recorded using the following scale: The data obtained are shown in Table IV. Rating scale [table]
# Alternaria solani = assay: MIC serial dilution test, Alternaria solani; conditions: V8 juice medium, 6-12 days at 18-25° C., visual
SMILES,MIC (Minimum Inhibitory Concentration) PYRIOR [1] [µg/mL],MIC (Minimum Inhibitory Concentration) COCHSA (Cochliobulus sativus) [µg/mL],MIC (Minimum Inhibitory Concentration) BOTRCI (Botrytis cinerea),Rating (inhibition of mycelial growth) (Rhizoctonia solani),MIC (Minimum Inhibitory Concentration) ALTEBO (Alternaria solani) [µg/mL]
"CC1CCN(c2c(-c3cc(F)ccc3C(F)(F)F)c(Cl)nc3ncnn23)CC1 [Example 5, 5-Chloro-6-(5-fluoro-2-trifluorome-thylphenyl)-7-(4-methyl-piperidin-1-yl)-[1,2,4]triazolo[1,5-α]pyrimidine]",<0.05,0.78,"0,78 μg/ml",7,0.2
"Fc1ccc(C(F)(F)F)c(-c2c(Cl)nc3ncnn3c2NC2CCCC2)c1 [Compound I-2, [5-chloro-6-(5-fluoro-2-trifluoromethyl-phenyl)-[1,2,4]triazolo[1,5-α]pyrimidin-7-yl]-cyclopentyl-amine]",0.78,3.13,25 µg/mL,7,3.13
Nc1c(-c2cc(F)ccc2C(F)(F)F)c(Cl)nc2ncnn12 [Compound I-7],,,,0,
Fc1ccc(C(F)(F)F)c(-c2c(Cl)nc3ncnn3c2NC2CC3CCC2C3)c1 (centres unmarked) [Compound I-3],12.5,6.25,25 µg/mL,5,0.78
"CC(C)Nc1c(-c2cc(F)ccc2C(F)(F)F)c(Cl)nc2ncnn12 [Compound I-1, [5-chloro-6-(5-fluoro-2-trifluoromethyl-phenyl)-[1,2,4]triazolo[1,5-α]pyrimidin-7-yl]-isopropyl-amine]",1.56,25,50 µg/mL,7,100
"CCC(C)Nc1c(-c2cc(F)ccc2C(F)(F)F)c(Cl)nc2ncnn12 (stereo not drawn) [Compound I-5, [5-chloro-6-(5-fluoro-2-trifluoromethyl-phenyl)-[1,2,4]triazolo[1,5-α]pyrimidin-7-yl]-N-(1-methyl-propyl)-amine]",0.78,12.5,12.5 µg/mL,7,6.25
Fc1ccc(C(F)(F)F)c(-c2c(Cl)nc3ncnn3c2NCC(F)(F)F)c1 [Compound I-6],,,,7,
"CCN(CC)c1c(-c2cc(F)ccc2C(F)(F)F)c(Cl)nc2ncnn12 [Compound I-4, N-[5-chloro-6-(5-fluoro-2-trifluoromethyl-phenyl)-[1,2,4]triazolo[1,5-α]pyrimidin-7-yl]-N,N-diethyl-amine]",0.78,12.5,25 µg/mL,7,>100
